As a reminder, the inhibition is how much of the control response was suppressed. For orientation: IC50 means the concentration at which inhibition is half-maximal.

Numbered stars: 1 amine (or outer) side, 2 acyl side, 3 side chain; on linkers, the order of the positions; unused ones are H or OH. Square brackets hold non-standard residues; d marks the D form. Peptide text beside a SMILES is read from it. * marks the point of attachment. ξ: configuration not given here. C18 diacid = O=C(O)CCCCCCCCCCCCCCCCC(=O)*; Nonadecanoyl = CCCCCCCCCCCCCCCCCCC(=O)*; Arachidoyl = CCCCCCCCCCCCCCCCCCCC(=O)*; γGlu = O=C(O)[C@H](CCC(=O)[*:2])N[*:1]; Pentanoyl(5-Ph) = O=C(CCCCc1ccccc1)*; Glutaryl = O=C(CCCC(=O)[*:2])[*:1]; HOOC(CH2)6CO = O=C(O)CCCCCCC(=O)*; Tridecanoyl = CCCCCCCCCCCCC(=O)*; ξR = N=C(N)NCCCC(N)C(=O)O; Heptanoyl = CCCCCCC(=O)*; Aun = NCCCCCCCCCCC(=O)O; AEEA = NCCOCCOCC(=O)O Where only a bound is given, the exact number is not on record here.

The text below walks through data of ChEMBL document CHEMBL5316338, “Discovery of Novel PTP1B Inhibitors with Once-Weekly Therapeutic Potential for Type 2 Diabetes: Design, Synthesis, and In Vitro and In Vivo Investigations of BimBH3 Peptide Analogues” (J Med Chem, 2023).

The first test concerns the target T1, Tyrosine-protein phosphatase non-receptor type 1 (Homo sapiens) (UniProt P18031).
T1 sequence (whole entry): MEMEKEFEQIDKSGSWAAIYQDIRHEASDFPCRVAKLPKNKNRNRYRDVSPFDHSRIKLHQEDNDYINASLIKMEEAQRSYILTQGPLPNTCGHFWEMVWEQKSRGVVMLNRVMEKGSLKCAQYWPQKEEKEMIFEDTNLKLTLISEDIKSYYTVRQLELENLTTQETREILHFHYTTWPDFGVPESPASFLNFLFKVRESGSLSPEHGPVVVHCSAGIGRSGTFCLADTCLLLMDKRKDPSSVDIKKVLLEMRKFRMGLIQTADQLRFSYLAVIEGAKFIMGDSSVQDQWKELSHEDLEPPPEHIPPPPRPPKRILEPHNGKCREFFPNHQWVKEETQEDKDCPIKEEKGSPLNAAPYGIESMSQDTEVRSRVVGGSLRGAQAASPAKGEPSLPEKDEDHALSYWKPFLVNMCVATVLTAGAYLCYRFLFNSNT
Description: Inhibition of N-terminal His tagged recombinant human PTP1B expressed in Escherichia coli using pNPP as substrate assessed as substrate hydrolysis at 40 umol/L relative to control. The following applies: dose 40.0 µmol/L.
With `CCCCCCCCCCCCC(=O)N[C@H](C(=O)N[C@@H](C)C(=O)N[C@@H](CCC(N)=O)C(=O)N[C@@H](CCC(=O)O)C(=O)N[C@@H](CC(C)C)C(=O)N[C@@H](CCCNC(=N)N)C(=O)N[C@@H](CCCNC(=N)N)C(=O)N[C@H](C(=O)NCC(=O)N[C@@H](CC(=O)O)C(=O)N[C@@H](CCC(=O)O)C(=O)N[C@@H](Cc1ccccc1)C(=O)O)[C@@H](C)CC)[C@@H](C)CC` (Tridecanoyl-IAQELRRIGDEF-OH), the inhibition is greater than 50%.
As to `CC[C@H](C)[C@H](NC(=O)CCCCCCCCC(=O)O)C(=O)N[C@@H](C)C(=O)N[C@@H](CCC(N)=O)C(=O)N[C@@H](CCC(=O)O)C(=O)N[C@@H](CC(C)C)C(=O)N[C@@H](CCCNC(=N)N)C(=O)N[C@@H](CCCNC(=N)N)C(=O)N[C@H](C(=O)NCC(=O)N[C@H](CC(=O)O)C(=O)N[C@@H](CCC(=O)O)C(=O)N[C@@H](Cc1ccccc1)C(=O)O)[C@@H](C)CC`, the inhibition is less than 50%.
`CC[C@H](C)[C@H](NC(=O)CCCCCCC(=O)O)C(=O)N[C@@H](C)C(=O)N[C@@H](CCC(N)=O)C(=O)N[C@@H](CCC(=O)O)C(=O)N[C@@H](CC(C)C)C(=O)N[C@@H](CCCNC(=N)N)C(=O)N[C@@H](CCCNC(=N)N)C(=O)N[C@H](C(=O)NCC(=O)N[C@@H](CC(=O)O)C(=O)N[C@@H](CCC(=O)O)C(=O)N[C@@H](Cc1ccccc1)C(=O)O)[C@@H](C)CC` ({HOOC(CH2)6CO}-IAQELRRIGDEF-OH): the inhibition was less than 50%.
Consider `CC[C@H](C)[C@H](NC(=O)CCCCCCCCCCN)C(=O)N[C@@H](C)C(=O)N[C@@H](CCC(N)=O)C(=O)N[C@@H](CCC(=O)O)C(=O)N[C@@H](CC(C)C)C(=O)N[C@@H](CCCNC(=N)N)C(=O)N[C@@H](CCCNC(=N)N)C(=O)N[C@H](C(=O)NCC(=O)N[C@@H](CC(=O)O)C(=O)N[C@@H](CCC(=O)O)C(=O)N[C@@H](Cc1ccccc1)C(=O)O)[C@@H](C)CC` (H-[Aun]IAQELRRIGDEF-OH), for which the inhibition is less than 50%.
Turning to `CCCCCCCCCCCCCCCCCCCC(=O)N[C@H](C(=O)N[C@@H](C)C(=O)N[C@@H](CCC(N)=O)C(=O)N[C@@H](CCC(=O)O)C(=O)N[C@@H](CC(C)C)C(=O)N[C@@H](CCCNC(=N)N)C(=O)NC(CCCNC(=N)N)C(=O)N[C@H](C(=O)NCC(=O)N[C@@H](CC(=O)O)C(=O)N[C@@H](CCC(=O)O)C(=O)N[C@@H](Cc1ccccc1)C(=O)O)[C@@H](C)CC)[C@@H](C)CC` (stereo partly drawn) (Arachidoyl-IAQELR[ξR]IGDEF-OH), the inhibition was greater than 50%.
On the same count and under the same terms, next, `CC[C@H](C)[C@H](NC(=O)CCCC(=O)O)C(=O)N[C@@H](C)C(=O)N[C@@H](CCC(N)=O)C(=O)N[C@@H](CCC(=O)O)C(=O)N[C@@H](CC(C)C)C(=O)N[C@@H](CCCNC(=N)N)C(=O)N[C@@H](CCCNC(=N)N)C(=O)N[C@H](C(=O)NCC(=O)N[C@@H](CC(=O)O)C(=O)N[C@@H](CCC(=O)O)C(=O)N[C@@H](Cc1ccccc1)C(=O)O)[C@@H](C)CC` (Glutaryl-IAQELRRIGDEF-OH): less than 50%; `CCCCCCCCCCCCCCCCCCC(=O)N[C@H](C(=O)N[C@@H](C)C(=O)N[C@@H](CCC(N)=O)C(=O)N[C@@H](CCC(=O)O)C(=O)N[C@@H](CC(C)C)C(=O)N[C@@H](CCCNC(=N)N)C(=O)NC(CCCNC(=N)N)C(=O)N[C@H](C(=O)NCC(=O)N[C@@H](CC(=O)O)C(=O)N[C@@H](CCC(=O)O)C(=O)N[C@@H](Cc1ccccc1)C(=O)O)[C@@H](C)CC)[C@@H](C)CC` (stereo partly drawn) (Nonadecanoyl-IAQELR[ξR]IGDEF-OH): greater than 50%.
As for `CC[C@H](C)[C@H](NC(=O)CCCCc1ccccc1)C(=O)N[C@@H](C)C(=O)N[C@@H](CCC(N)=O)C(=O)N[C@@H](CCC(=O)O)C(=O)N[C@@H](CC(C)C)C(=O)N[C@@H](CCCNC(=N)N)C(=O)N[C@@H](CCCNC(=N)N)C(=O)N[C@H](C(=O)NCC(=O)N[C@@H](CC(=O)O)C(=O)N[C@@H](CCC(=O)O)C(=O)N[C@@H](Cc1ccccc1)C(=O)O)[C@@H](C)CC` ({Pentanoyl(5-Ph)}-IAQELRRIGDEF-OH), the inhibition is less than 50%.
Take `CCCCCCC(=O)N[C@H](C(=O)N[C@@H](C)C(=O)N[C@@H](CCC(N)=O)C(=O)N[C@@H](CCC(=O)O)C(=O)N[C@@H](CC(C)C)C(=O)N[C@@H](CCCNC(=N)N)C(=O)N[C@@H](CCCNC(=N)N)C(=O)N[C@H](C(=O)NCC(=O)N[C@@H](CC(=O)O)C(=O)N[C@@H](CCC(=O)O)C(=O)N[C@@H](Cc1ccccc1)C(=O)O)[C@@H](C)CC)[C@@H](C)CC` (Heptanoyl-IAQELRRIGDEF-OH): the inhibition is less than 50%.
Same read-out and setting: in the case of `CC[C@H](C)[C@H](NC(=O)COCCOCCNC(=O)COCCOCCNC(=O)CC[C@H](NC(=O)CCCCCCCCCCCCCCCCC(=O)O)C(=O)O)C(=O)N[C@@H](C)C(=O)N[C@@H](CCC(N)=O)C(=O)N[C@@H](CCC(=O)O)C(=O)N[C@@H](CC(C)C)C(=O)N[C@@H](CCCNC(=N)N)C(=O)N[C@@H](CCCNC(=N)N)C(=O)N[C@H](C(=O)NCC(=O)N[C@@H](CC(=O)O)C(=O)N[C@@H](CCC(=O)O)C(=O)N[C@@H](Cc1ccccc1)C(=O)O)[C@@H](C)CC` ({C18 diacid-γGlu-AEEA-AEEA}-IAQELRRIGDEF-OH) it was less than 50%.

In another test the target is T2, Tyrosine-protein phosphatase non-receptor type 1 (Homo sapiens, UniProt P18031).
T2 sequence (P18031 whole entry): T1 sequence (whole entry)
Description: Inhibition of N-terminal His tagged recombinant human PTP1B expressed in Escherichia coli using pNPP as substrate assessed as substrate hydrolysis.
Conditions: not given
With `CCCCCCCCCCCCC(=O)N[C@H](C(=O)N[C@@H](C)C(=O)N[C@@H](CCC(N)=O)C(=O)N[C@@H](CCC(=O)O)C(=O)N[C@@H](CC(C)C)C(=O)N[C@@H](CCCNC(=N)N)C(=O)N[C@@H](CCCNC(=N)N)C(=O)N[C@H](C(=O)NCC(=O)N[C@@H](CC(=O)O)C(=O)N[C@@H](CCC(=O)O)C(=O)N[C@@H](Cc1ccccc1)C(=O)O)[C@@H](C)CC)[C@@H](C)CC` (Tridecanoyl-IAQELRRIGDEF-OH), the IC50 worked out at 835 nM.
The same measure, in the same setting: next, `CCCCCCCCCCCCCCCCCCCC(=O)N[C@H](C(=O)N[C@@H](C)C(=O)N[C@@H](CCC(N)=O)C(=O)N[C@@H](CCC(=O)O)C(=O)N[C@@H](CC(C)C)C(=O)N[C@@H](CCCNC(=N)N)C(=O)NC(CCCNC(=N)N)C(=O)N[C@H](C(=O)NCC(=O)N[C@@H](CC(=O)O)C(=O)N[C@@H](CCC(=O)O)C(=O)N[C@@H](Cc1ccccc1)C(=O)O)[C@@H](C)CC)[C@@H](C)CC` (stereo partly drawn) (Arachidoyl-IAQELR[ξR]IGDEF-OH): 3890 nM.
Take `CCCCCCCCCCCCCCCCCCC(=O)N[C@H](C(=O)N[C@@H](C)C(=O)N[C@@H](CCC(N)=O)C(=O)N[C@@H](CCC(=O)O)C(=O)N[C@@H](CC(C)C)C(=O)N[C@@H](CCCNC(=N)N)C(=O)NC(CCCNC(=N)N)C(=O)N[C@H](C(=O)NCC(=O)N[C@@H](CC(=O)O)C(=O)N[C@@H](CCC(=O)O)C(=O)N[C@@H](Cc1ccccc1)C(=O)O)[C@@H](C)CC)[C@@H](C)CC` (stereo partly drawn) (Nonadecanoyl-IAQELR[ξR]IGDEF-OH): the IC50 came out at 437 nM.
